The values below come from US20170326125A1, “MULTISUBSTITUTED AROMATIC COMPOUNDS AS INHIBITORS OF THROMBIN” (VERSEON CORPORATION, priority 2016, published 2017).

The assay addresses T1, Human thrombin (Homo sapiens, UniProt P00734).
T1 construct: purchased Haematologic Technologies Inc
As to the kind of experiment: Inhibition of the protease activity of thrombin (chromogenic substrate S-2238). Conditions: Table C; 3 nM thrombin, 125 μM S-2238, 10 min pre-incubation, RT. Type of assay: biochemical.

A word on the IC50: it is the concentration needed to halve the response being measured. Read a low IC50 as higher potency. `CS(=O)(=O)n1nc(C(=O)N2CCOCC2)nc1N` [Cmpd 360, 1-methanesulfonyl-3-[(morpholin-4-yl)carbonyl]-1H-1,2,4-triazol-5-amine]: the IC50 was greater than 1000 nM. The molecule `CC(C)C(=O)n1nc(-c2cccnc2)nc1NCc1ccco1` [Cmpd 361, 1-5-[(furan-2-ylmethyl)amino]-3-(pyridin-3-yl)-1H-1,2,4-triazol-1-yl-2-methylpropan-1-one] came in with an IC50 of less than 100 nM. In the case of `CCCC(=O)n1nc(-c2cccnc2)nc1NCc1ccco1` [Cmpd 362, 1-5-[(furan-2-ylmethyl)amino]-3-(pyridin-3-yl)-1H-1,2,4-triazol-1-ylbutan-1-one] it was less than 100 nM; in that of `CC(=O)n1nc(-c2cccnc2)nc1NCc1ccco1` [Cmpd 363, 1-5-[(furan-2-ylmethyl)amino]-3-(pyridin-3-yl)-1H-1,2,4-triazol-1-ylethan-1-one], less than 100 nM; in that of `CCC(=O)n1nc(-c2cccnc2)nc1NCc1ccco1` [Cmpd 364, 1-5-[(furan-2-ylmethyl)amino]-3-(pyridin-3-yl)-1H-1,2,4-triazol-1-ylpropan-1-one], 100 to 1000 nM. In the case of `O=C(Nc1n[nH]c(-c2ccco2)n1)c1ccccc1F` [Cmpd 365, 2-fluoro-N-[5-(furan-2-yl)-1H-1,2,4-triazol-3-yl]benzamide] it was greater than 1000 nM. In the case of `Cc1ccc(CNc2nc(-c3cccnc3)nn2C(=O)C(C)C)cc1` [Cmpd 366, 2-methyl-1-(5-[(4-methylphenyl)methyl]amino-3-(pyridin-3-yl)-1H-1,2,4-triazol-1-yl)propan-1-one] it was less than 100 nM.

Take `COc1ccccc1C(=O)n1nc(-c2ccco2)nc1SC` [Cmpd 367, 3-(furan-2-yl)-1-[(2-methoxyphenyl)carbonyl]-5-(methylsulfanyl)-1H-1,2,4-triazole]: the IC50 is less than 100 nM. The value for `O=C(c1cccnc1)n1nc(-c2ccco2)nc1NCc1cccs1` [Cmpd 368, 3-(furan-2-yl)-1-[(pyridin-3-yl)carbonyl]-N-(thiophen-2-ylmethyl)-1H-1,2,4-triazol-5-amine] was less than 100 nM; that for `CS(=O)(=O)n1nc(-c2ccco2)nc1NCc1cccs1` [Cmpd 369, 3-(furan-2-yl)-1-methanesulfonyl-N-(thiophen-2-ylmethyl)-1H-1,2,4-triazol-5-amine] was greater than 1000 nM; that for `COc1ccccc1CNc1nc(-c2ccco2)nn1C(=O)c1ccc(C)cc1` [Cmpd 370, 3-(furan-2-yl)-N-[(2-methoxyphenyl)methyl]-1-[(4-methylphenyl)carbonyl]-1H-1,2,4-triazol-5-amine] was 100 to 1000 nM. In the case of `COc1ccc(CNc2nc(-c3ccco3)nn2C(=O)c2ccc(C)cc2)cc1` [Cmpd 371, 3-(furan-2-yl)-N-[(4-methoxyphenyl)methyl]-1-[(4-methylphenyl)carbonyl]-1H-1,2,4-triazol-5-amine] it was 100 to 1000 nM; in that of `O=C(c1cccnc1)n1nc(-c2cccnc2)nc1NCc1cccs1` [Cmpd 372, 3-(pyridin-3-yl)-1-[(pyridin-3-yl)carbonyl]-N-(thiophen-2-ylmethyl)-1H-1,2,4-triazol-5-amine], 100 to 1000 nM; in that of `Nc1nc(-c2cccs2)n[nH]1` [Cmpd 373, 3-(thiophen-2-yl)-1H-1,2,4-triazol-5-amine], greater than 1000 nM. With `Cc1ccc(CNc2nc(-c3cccnc3)nn2C(=O)CC(C)C)cc1` [Cmpd 374, 3-methyl-1-(5-[(4-methylphenyl)methyl]amino-3-(pyridin-3-yl)-1H-1,2,4-triazol-1-yl)butan-1-one], the IC50 is less than 100 nM. The value for `CC(C)CC(=O)n1nc(-c2cccnc2)nc1NCc1cccs1` [Cmpd 375, 3-methyl-1-[3-(pyridin-3-yl)-5-[(thiophen-2-ylmethyl)amino]-1H-1,2,4-triazol-1-yl]butan-1-one] was less than 100 nM; that for `CCOC(=O)n1nc(-c2ccc(Cl)cc2)cc1N` [Cmpd 376, ethyl 5-amino-3-(4-chlorophenyl)-1H-pyrazole-1-carboxylate] was greater than 1000 nM; that for `COC(=O)c1nc(NC(=O)c2ccc(Cl)cc2Cl)n[nH]1` [Cmpd 377, methyl 3-[(2,4-dichlorobenzene)amido]-1H-1,2,4-triazole-5-carboxylate] was greater than 1000 nM.

Take `COC(=O)c1n[nH]c(NC(=O)C(C)(C)C)n1` [Cmpd 378, methyl 5-(2,2-dimethylpropanamido)-1H-1,2,4-triazole-3-carboxylate]: the IC50 is greater than 1000 nM. `COC(=O)c1n[nH]c(NC(=O)c2ccoc2C)n1` [Cmpd 379, methyl 5-(2-methylfuran-3-amido)-1H-1,2,4-triazole-3-carboxylate]: the IC50 is greater than 1000 nM. On to `COC(=O)c1n[nH]c(NC(=O)c2ccccc2C)n1` [Cmpd 380, methyl 5-[(2-methylbenzene)amido]-1H-1,2,4-triazole-3-carboxylate], for which the IC50 is greater than 1000 nM. The value for `COC(=O)c1n[nH]c(NC2=NCCCCC2)n1` [Cmpd 381, methyl 5-[(3,4,5,6-tetrahydro-2H-azepin-7-yl)amino]-1H-1,2,4-triazole-3-carboxylate] was greater than 1000 nM. The value for `COC(=O)c1n[nH]c(NC(=O)c2cccc(C)c2)n1` [Cmpd 382, methyl 5-[(3-methylbenzene)amido]-1H-1,2,4-triazole-3-carboxylate] was greater than 1000 nM. In the case of `COC(=O)c1nnc(NC(=O)c2ccc(Br)cc2)[nH]1` [Cmpd 383, methyl 5-[(4-bromobenzene)amido]-1H-1,2,4-triazole-3-carboxylate] it was greater than 1000 nM.

In turn, `COC(=O)c1nnc(NC(=O)c2ccc(F)cc2)[nH]1` [Cmpd 385, methyl 5-[(4-fluorobenzene)amido]-4H-1,2,4-triazole-3-carboxylate] registered an IC50 of 100 to 1000 nM.

Turning to `COC(=O)c1n[nH]c(N=Cc2cccnc2)n1` [Cmpd 387, methyl 5-[(pyridin-3-ylmethylidene)amino]-1H-1,2,4-triazole-3-carboxylate], the IC50 is greater than 1000 nM.

The molecule `COC(=O)c1n[nH]c(NC(=O)CCc2ccc(C)cc2)n1` [Cmpd 388, methyl 5-[3-(4-methylphenyl)propanamido]-1H-1,2,4-triazole-3-carboxylate] yielded an IC50 greater than 1000 nM. The value for `O=C(Nc1ccc(Cl)cc1Cl)c1n[nH]c(Cn2cncn2)n1` [Cmpd 390, N-(2,4-dichlorophenyl)-5-(1H-1,2,4-triazol-1-ylmethyl)-4H-1,2,4-triazole-3-carboxamide] was greater than 1000 nM; that for `O=C(Nc1ccccc1Cl)c1nc(-n2cnnc2)n[nH]1` [Cmpd 391, N-(2-chlorophenyl)-3-(4H-1,2,4-triazol-4-yl)-1H-1,2,4-triazole-5-carboxamide] was greater than 1000 nM; that for `O=C(Nc1ccc(Br)cc1)c1nc(-n2cnnc2)n[nH]1` [Cmpd 392, N-(4-bromophenyl)-3-(4H-1,2,4-triazol-4-yl)-1H-1,2,4-triazole-5-carboxamide] was greater than 1000 nM. Consider `CCOc1ccc(NC(=O)c2nc(-n3cnnc3)n[nH]2)cc1` [Cmpd 393, N-(4-ethoxyphenyl)-3-(4H-1,2,4-triazol-4-yl)-1H-1,2,4-triazole-5-carboxamide], for which the IC50 is greater than 1000 nM. The value for `COc1ccccc1C(=O)n1nc(-c2ccccc2)nc1NCc1ccco1` [Cmpd 394, N-(furan-2-ylmethyl)-1-[(2-methoxyphenyl)carbonyl]-3-phenyl-1H-1,2,4-triazol-5-amine] was less than 100 nM. The value for `CS(=O)(=O)n1nc(-c2cccnc2)nc1NCc1ccco1` [Cmpd 395, N-(furan-2-ylmethyl)-1-methanesulfonyl-3-(pyridin-3-yl)-1H-1,2,4-triazol-5-amine] was greater than 1000 nM; that for `O=C(c1cccnc1)n1nc(-c2cccnc2)nc1NCc1ccco1` [Cmpd 396, N-(furan-2-ylmethyl)-3-(pyridin-3-yl)-1-[(pyridin-3-yl)carbonyl]-1H-1,2,4-triazol-5-amine] was greater than 1000 nM; that for `O=C(c1cccnc1)n1nc(-c2ccco2)nc1NCc1ccccc1Cl` [Cmpd 397, N-[(2-chlorophenyl)methyl]-3-(furan-2-yl)-1-[(pyridin-3-yl)carbonyl]-1H-1,2,4-triazol-5-amine] was 100 to 1000 nM.

With `COc1ccccc1CNc1nc(-c2cccnc2)nn1C(=O)c1cccnc1` [Cmpd 398, N-[(2-methoxyphenyl)methyl]-3-(pyridin-3-yl)-1-[(pyridin-3-yl)carbonyl]-1H-1,2,4-triazol-5-amine], the IC50 is greater than 1000 nM.

Regarding `Cc1ccc(C(=O)n2nc(-c3cccnc3)nc2NCc2ccc(F)cc2)cc1` [Cmpd 401, N-[(4-fluorophenyl)methyl]-1-[(4-methylphenyl)carbonyl]-3-(pyridin-3-yl)-1H-1,2,4-triazol-5-amine], the IC50 is less than 100 nM. The value for `O=C(c1ccco1)n1nc(-c2cccnc2)nc1NCc1ccc(F)cc1` [Cmpd 402, N-[(4-fluorophenyl)methyl]-1-[(furan-2-yl)carbonyl]-3-(pyridin-3-yl)-1H-1,2,4-triazol-5-amine] was less than 100 nM. Take `O=C(c1cccs1)n1nc(-c2cccnc2)nc1NCc1ccc(F)cc1` [Cmpd 403, N-[(4-fluorophenyl)methyl]-3-(pyridin-3-yl)-1-[(thiophen-2-yl)carbonyl]-1H-1,2,4-triazol-5-amine]: the IC50 is less than 100 nM. The value for `COc1ccc(CNc2nc(-c3cccnc3)nn2C(=O)c2ccc(C)cc2)cc1` [Cmpd 404, N-[(4-methoxyphenyl)methyl]-1-[(4-methylphenyl)carbonyl]-3-(pyridin-3-yl)-1H-1,2,4-triazol-5-amine] was 100 to 1000 nM; that for `COc1ccc(CNc2nc(-c3cccnc3)nn2C(=O)c2cccs2)cc1` [Cmpd 405, N-[(4-methoxyphenyl)methyl]-3-(pyridin-3-yl)-1-[(thiophen-2-yl)carbonyl]-1H-1,2,4-triazol-5-amine] was greater than 1000 nM. In the case of `CC(=O)Nc1n[nH]c(NCc2ccccc2)n1` [Cmpd 406, N-[5-(benzylamino)-1H-1,2,4-triazol-3-yl]acetamide] it was greater than 1000 nM; in that of `O=C(Nc1n[nH]c(-c2ccco2)n1)c1ccccc1` [Cmpd 407, N-[5-(furan-2-yl)-1H-1,2,4-triazol-3-yl]benzamide], greater than 1000 nM. `O=C(c1ccccc1Cl)n1nc(-c2ccco2)nc1NCc1ccccc1` [Cmpd 408, N-benzyl-1-[(2-chlorophenyl)carbonyl]-3-(furan-2-yl)-1H-1,2,4-triazol-5-amine]: the IC50 is less than 100 nM.
